Test results as given in article PMC5407064 (Cell reports, 2017).
Positions count from the first letter of the chain named.

Assays:
SIRT1 K444E = target: T1, SIRT1 K444E (Homo sapiens, UniProt Q96EB6, K444E); experiment: steady-state kinetics; assay type: biochemical
T1 sequence (Q96EB6 2-747 K444E): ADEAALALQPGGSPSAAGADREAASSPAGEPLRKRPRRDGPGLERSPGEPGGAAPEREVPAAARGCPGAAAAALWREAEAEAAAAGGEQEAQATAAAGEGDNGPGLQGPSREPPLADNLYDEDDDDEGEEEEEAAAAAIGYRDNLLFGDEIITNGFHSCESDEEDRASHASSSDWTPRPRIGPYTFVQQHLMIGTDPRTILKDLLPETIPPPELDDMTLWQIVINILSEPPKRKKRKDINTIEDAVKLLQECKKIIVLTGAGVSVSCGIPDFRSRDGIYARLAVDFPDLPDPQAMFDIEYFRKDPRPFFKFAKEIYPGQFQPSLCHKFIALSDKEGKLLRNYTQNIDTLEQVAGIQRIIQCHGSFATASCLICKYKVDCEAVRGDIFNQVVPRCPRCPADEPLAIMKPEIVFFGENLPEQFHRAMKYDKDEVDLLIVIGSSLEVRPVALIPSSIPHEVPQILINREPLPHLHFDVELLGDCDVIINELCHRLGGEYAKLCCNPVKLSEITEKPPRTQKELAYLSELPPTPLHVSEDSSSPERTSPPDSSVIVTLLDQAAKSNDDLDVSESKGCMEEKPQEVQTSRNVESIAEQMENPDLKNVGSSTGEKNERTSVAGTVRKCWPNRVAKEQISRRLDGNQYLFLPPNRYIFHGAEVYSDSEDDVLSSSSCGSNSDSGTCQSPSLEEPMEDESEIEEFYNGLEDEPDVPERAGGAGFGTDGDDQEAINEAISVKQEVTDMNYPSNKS

SIRT1 = target: T2, SIRT1 (Homo sapiens, UniProt Q96EB6); experiment: SIRT1 activation assay; assay type: biochemical
T2 sequence (Q96EB6 2-747): T1 sequence (Q96EB6 2-747 K444E) with E443K

## NC(=O)c1ccc[n+]([C@@H]2O[C@H](COP(=O)([O-])OP(=O)(O)OC[C@H]3O[C@@H](n4cnc5c(N)ncnc54)[C@H](O)[C@@H]3O)[C@@H](O)[C@H]2O)c1 [NAD^+]
SIRT1 K444E
  steady-state kinetics (KM, kcat), FDL SIRT1 assay with varied NAD+: K444E SIRT1 is catalytically more active than WT (higher kcat) and has a significantly lower KM for both substrates

## Oc1ccc(/C=C/c2cc(O)cc(O)c2)cc1 [resveratrol]
SIRT1
  SIRT1 activation assay (Fig. S4C); activation peak concentration: 1 mM
